Where two headings read alike, the source gives them in different places.
Tests used:
[1] = biological target: T1, zebrafish TRPA1a (zTRPA1a) (Danio rerio, UniProt Q5UM15); test: FLIPR calcium signaling assay in zTRPA1a-transfected HEK293 cells; assay type: cell-based
T1 sequence (Q5UM15 1-1115): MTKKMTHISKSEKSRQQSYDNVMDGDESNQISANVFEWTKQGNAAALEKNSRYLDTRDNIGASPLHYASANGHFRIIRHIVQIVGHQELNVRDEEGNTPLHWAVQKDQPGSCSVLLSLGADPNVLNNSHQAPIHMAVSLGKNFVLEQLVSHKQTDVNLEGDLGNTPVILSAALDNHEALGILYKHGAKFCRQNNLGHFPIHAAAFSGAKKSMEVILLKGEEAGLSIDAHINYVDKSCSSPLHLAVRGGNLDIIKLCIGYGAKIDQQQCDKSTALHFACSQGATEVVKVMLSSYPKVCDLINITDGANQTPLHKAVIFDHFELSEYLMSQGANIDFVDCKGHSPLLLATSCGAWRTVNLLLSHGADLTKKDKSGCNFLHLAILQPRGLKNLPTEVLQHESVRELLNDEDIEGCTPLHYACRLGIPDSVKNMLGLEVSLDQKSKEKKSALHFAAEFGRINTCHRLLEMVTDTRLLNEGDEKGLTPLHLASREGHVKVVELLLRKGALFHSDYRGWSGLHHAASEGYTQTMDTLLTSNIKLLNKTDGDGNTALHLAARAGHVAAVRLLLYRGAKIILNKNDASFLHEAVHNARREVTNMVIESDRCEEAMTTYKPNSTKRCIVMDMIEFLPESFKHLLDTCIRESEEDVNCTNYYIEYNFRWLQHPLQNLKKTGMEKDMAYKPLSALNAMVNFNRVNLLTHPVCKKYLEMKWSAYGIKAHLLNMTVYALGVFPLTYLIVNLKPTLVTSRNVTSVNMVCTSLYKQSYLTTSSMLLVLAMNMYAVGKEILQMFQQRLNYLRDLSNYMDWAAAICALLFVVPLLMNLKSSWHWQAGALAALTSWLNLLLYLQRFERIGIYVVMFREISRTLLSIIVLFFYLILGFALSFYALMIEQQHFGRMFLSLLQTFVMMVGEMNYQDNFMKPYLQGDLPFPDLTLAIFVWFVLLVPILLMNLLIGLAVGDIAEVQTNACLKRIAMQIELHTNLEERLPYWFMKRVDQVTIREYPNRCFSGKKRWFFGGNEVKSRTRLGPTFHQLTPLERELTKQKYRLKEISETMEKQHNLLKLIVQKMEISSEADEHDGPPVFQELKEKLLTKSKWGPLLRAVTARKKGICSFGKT
Protocol: The cells were maintained in a 37 °C incubator with consistent 5% CO2. […] Experiments were carried out with the approval of the Institutional Biohazard Committee (#13-013-16).
Twenty-five µl calcium sensitive Fluorescent Imaging Plate Reader (FLIPR) Calcium 6 assay dye (#R8190, Molecular Devices, CA, USA) was added to each well of a 384-well plate containing HEK293 cells transiently expressing mTRPA1, zTRPA1a, and zTRPA1b, respectively. The cells were incubated for an hour prior to the recording of intracellular calcium levels in a FlexStation3 Multi-Mode Microplate Reader (#R8190, Molecular Devices) as previously described. […] During the assay, the cells were challenged by a 5x ASP7663 solution or 1% DMSO solution at the 20 seconds time point, and both solutions were diluted in calcium buffer. Relative fluorescence units (RFU) were measured for 120 seconds period by the Flexstation. […] For each specific antagonist concentration we plotted Log(dose ratio-1) against the antagonist concentration in a Schild plot. The dose ratio (A’/A) equals the EC50 of the agonist (ASP7665) in the presence of a concentration of the antagonist (A’) divided by the EC50 of the agonist in the absence of antagonist (A). The x-intercept of the Schild plot was used to identify the antagonist-receptor affinity (pA2).
All data are presented as means ± standard error of the mean (SEM). For our in vitro statistical analysis, AUC of calcium influx (RFU) was measured to plot dose-response curves, which were further analyzed by nonlinear regression analysis. Mean RFU of the first 10 seconds was used as a baseline of the AUC. EC50 values of the dose-response curves were further used to plot Schild curves, and the curves were analyzed with linear regression analysis. For the mice von Frey test, mechanical thresholds were analyzed with two-way ANOVA followed by a Bonferonni test for multiple comparison analysis. For the zebrafish behavior test, the data from the first five seconds following drug administration were excluded, as zebrafish displacement during that period was highly influenced by liquid dispensing. AUC of all curves were measured and analyzed by one-way ANOVA. The post-hoc analysis was conducted with the Tukey’s or Dunnett’s multiple comparisons unless it stated otherwise. […] For our time-course average displacement graph, we used 2nd degree polynomial smoothing for a better representation; however, we used data before smoothing for all statistical analysis and quantification. All in vitro and in vivo data were evaluated using GraphPad Prism 7 (GraphPad Software, La Jolla, CA) unless it stated otherwise.

[2] = test system: non-transfected HEK293 cells; test: FLIPR calcium signaling assay in non-transfected HEK293 cells (off-target effect); assay type: cell-based
[3] = agonist calcium influx, zTRPA1a-transfected HEK293, read-out: EC50 (potency in µM)

Row | SMILES | EC50 ([1]; agonist calcium influx, AUC of RFU, zTRPA1a-transfected HEK293, read-out: pEC50 (AITC given as EC50) (converted)) [µM] | EC50 [1, 3] [µM] | calcium influx by antagonist alone ([1]; 316 µM, zTRPA1a-transfected cells) | pEC50 (weak agonist activity) ([1]; HC030031 alone, zTRPA1a-transfected HEK293, Supplemental Fig. 6) | pA2 expressed in µM ([1]; Schild plot against ASP7663-mediated calcium influx, zTRPA1a) [µM] | pA2 ([1]; Schild plot against ASP7663-mediated calcium influx, zTRPA1a, only two antagonist doses) | Schild slope ([1]; zTRPA1a, n = 3) | calcium influx by antagonist alone [2] | pEC50 (AITC given as EC50) ([1]; agonist calcium influx, AUC of RFU, zTRPA1a-transfected HEK293) | pEC50 (off-target calcium response) [2] | EC50 ([2]; read-out: EC50 (off-target calcium response)) [µM]
1 | C=CCN=C=S [AITC, allyl isothiocyanate] | 25.1 | 26.6 | – | – | – | – | – | – | – | – | –
2 | CC(C)c1ccc(NC(=O)Cn2cnc3c2c(=O)n(C)c(=O)n3C)cc1 [HC-030031] | – | – | could produce an influx of intracellular calcium | 2.85 ± 0.19 | 26.8 | 4.6 ± 0.2 | 0.84 ± 0.22 | did not observe any calcium influx | – | – | –
3 | CC(C)CN1C(=O)/C(=C/C(=O)O)c2cccc(F)c21 [ASP7663] | – | 118 | – | – | – | – | – | – | 3.9 ± 0.18 | 4.27 ± 0.03 | 54.1

Reference: publication PMC6382835, “A critical evaluation of TRPA1-mediated locomotor behavior in zebrafish as a screening tool for novel anti-nociceptive drug discovery” (Scientific Reports, 2019)
